The subject of one assay is pressor action of AII. In words: Inhibitory effect on pressor action of AII in rats after oral administration. Format: in vivo, Jcl:SD rats. The following applies: 1 mg/kg p.o., percent inhibition of pressor action of AII 100 ng/kg i.v. How it is done:
Jcl:SD rats (9 week old, male) were used. On the previous day of the experiment, these animals were applied with cannulation into the femoral artery and vein under anesthesia with pentobarbital Na. These animals were fasted but allowed to access freely to drinking water until the experiment was started. Just on the day of conducting the experiment, the artery cannula was connected with a blood-pressure transducer, and the average blood pressure was recorded by means of polygraph. Before administration of the drug, the pressor action due to intravenous administration of AII (100 ng/kg) as the control was determined. The drugs were orally administered, then, at each point of the determination, AII was administered intravenously, and the pressor action was similarly determined. By comparing the pressor action before and after administration of the drug, the percent inhibition by the drug was evaluated.

The target in a further assay is T1, AII receptor (Bos taurus, UniProt P25104).
T1 construct: An AII receptor membrane fraction was prepared from bovine adrenal cortex; from tissue; host or cells: bovine adrenal cortex, membrane fraction
T1 sequence (P25104 1-359): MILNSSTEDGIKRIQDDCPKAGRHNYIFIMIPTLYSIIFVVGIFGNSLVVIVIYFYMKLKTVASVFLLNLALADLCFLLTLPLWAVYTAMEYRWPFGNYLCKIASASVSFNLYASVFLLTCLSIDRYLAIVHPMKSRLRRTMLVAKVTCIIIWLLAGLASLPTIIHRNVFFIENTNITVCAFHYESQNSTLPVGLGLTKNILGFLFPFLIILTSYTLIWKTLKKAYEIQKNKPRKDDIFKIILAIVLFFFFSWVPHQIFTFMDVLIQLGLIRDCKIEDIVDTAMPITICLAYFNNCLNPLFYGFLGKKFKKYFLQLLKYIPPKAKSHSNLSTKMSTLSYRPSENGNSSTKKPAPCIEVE
As to the kind of experiment: Inhibition of binding of 125I-angiotensin II to AII receptor membrane fraction. The following applies: bovine adrenal cortex membrane fraction, 125I-AII, read-out: Binding-inhibitory action (rate) %; for inhibition at 1 µM: compound 10^-6 M; for inhibition at 0.1 µM: compound 10^-7 M. The procedure:
An experiment of inhibition on the binding of angiotensin II (AII) to AII receptor was conducted by modifying the method of Douglas et al. [Endocrinology, 102, 685-696 (1978)]. An AII receptor membrane fraction was prepared from bovine adrenal cortex.
The compound of the present invention (10^-6 M or 10^-7 M) and ^125 I-angiotensin II (^125 I-AII) (2.44kBq/50 μl) were added to the receptor membrane fraction, and the mixture was incubated at room temperature for one hour. The receptor-bound and free ^125 I-AII were separated through a filter (Whatman GF/B filter), and the radioactivity of ^125 I-AII bound to the receptor was determined.

As for `CCCCc1nn(-c2ccccc2Cl)c(C(=O)O)c1Cc1ccc(-c2ccccc2-c2nsc(=O)[nH]2)cc1` [compound 8], in the assay on pressor action of AII, the Pressor-inhibitory action result is “+++ (+++ ≥ 70%)”. Further, the inhibition at 1 µM at AII receptor amounted to 37%.

With `CCCCc1nn(-c2ccccc2Cl)c(C(=O)O)c1Cc1ccc(-c2ccccc2-c2noc(=O)[nH]2)cc1` [compound 6], the Pressor-inhibitory action entry in the assay on pressor action of AII is reported as “++ (70% > ++ ≥ 50%)”. Also, on AII receptor, the inhibition at 1 µM was 32%.

Take `CCCCc1n[nH]c(C(=O)O)c1Cc1ccc(-c2ccccc2-c2nc(=O)o[nH]2)cc1` [Working Example 2, 3-Butyl-4-[2'-(2,5-dihydro-5-oxo-1,2,4-oxadiazol-3-yl)biphenyl-4-yl]methylpyrazole-5-carboxylic acid]: in the assay with pressor action of AII, the Pressor-inhibitory action result was “+ (50% > +-)”. At AII receptor, the inhibition at 1 µM was 68% and the inhibition at 0.1 µM is 30%.

`CCCCc1n[nH]c(C(=O)OC)c1Cc1ccc(-c2ccccc2-c2nsc(=O)[nH]2)cc1` [compound 3]: in the assay with pressor action of AII, the Pressor-inhibitory action result is “+++ (+++ ≥ 70%)”. Besides, at AII receptor, the inhibition at 1 µM worked out at 17% and the inhibition at 0.1 µM amounted to 7%.

The values above are taken from patent US5496835A, “Heterocyclic compounds having angiotensin II antagonistic activity and use thereof” (Takeda Chemical Industries, Ltd., priority 1992, dated 1996).
